For 20 compounds, Activity and Stability results are on record in ChEMBL document CHEMBL4396952, “Xanthone, benzophenone and bianthrone derivatives from the hypersaline lake-derived fungus Aspergillus wentii” (Bioorg Med Chem, 2019).

The test system of data set [1] is L5178Y. Description: Cytotoxicity against mouse L5178Y cells at 10 ug/ml. It is filed as functional, cell-based.
In data set [2] the test system is L5178Y. In words: Cytotoxicity against mouse L5178Y cells at 100 uM. It is filed as functional, cell-based.
The test system of data set [3] is L5178Y. Description: Cytotoxicity against mouse L5178Y cells at 10 uM. The class given is functional, cell-based.
Data set [4] deals with A2780S. Description: Cytotoxicity against human A2780S cells at 10 ug/ml. The class given is functional, cell-based.
Data set [5] deals with A2780S. Description: Cytotoxicity against human A2780S cells at 100 uM. It is filed as functional, cell-based.
Data set [6] deals with A2780S. Description: Cytotoxicity against human A2780S cells at 10 uM. It is filed as functional, cell-based.
For data set [7], the system named is Mycobacterium tuberculosis. In words: Antitubercular activity against Mycobacterium tuberculosis H37Rv. It is filed as functional, organism-based.
In the next data set the test system is Staphylococcus aureus. In words: Antibacterial activity against Staphylococcus aureus ATCC 29213. The class given is functional, organism-based.
The test system of a further data set is Escherichia coli. In words: Antibacterial activity against Escherichia coli. It is filed as functional, organism-based.
Another data set deals with Pseudomonas aeruginosa. Description: Antibacterial activity against Pseudomonas aeruginosa. It is filed as functional, organism-based.
In a further data set the test system is Enterococcus faecium. Description: Antibacterial activity against Enterococcus faecium. It is filed as functional, organism-based.
The next data set relates to Klebsiella pneumoniae. Description: Antibacterial activity against Klebsiella pneumoniae. The class given is functional, organism-based.
The next data set has as its system Klebsiella aerogenes. Description: Antibacterial activity against Enterobacter aerogenes. It is filed as functional, organism-based.
A further data set relates to Acinetobacter baumannii. Description: Antibacterial activity against Acinetobacter baumannii. The class given is functional, organism-based.
The nature of data set [8]: Stability of the compound by HPLC analysis. The class given is physicochemical.

Active and inactive are the calls of the source. The rule behind the calls is not given here.

On to `Cc1cc2c(c(O)c1C(=O)OC[C@@H](O)CO)C(=O)c1c(O)cc(O)cc1C2=O`, for which the outcome in the data set with L5178Y [1], in the data set on L5178Y [2], with L5178Y [3], in the data set with A2780S [4], with A2780S [5] and in the data set on A2780S [6] was inactive. Moreover, the result (in data set [7]; in the data set on Staphylococcus aureus; in the data set on Escherichia coli; with Pseudomonas aeruginosa; with Enterococcus faecium; with Klebsiella pneumoniae) was inactive. The outcome in the data set with Klebsiella aerogenes and with Acinetobacter baumannii was inactive.
Take `COc1cc(C(=O)O)c2c(=O)c3c(O)cc(C)cc3oc2c1`: the outcome with L5178Y [1], with L5178Y [2], with L5178Y [3], in the data set with A2780S [4], with A2780S [5] and with A2780S [6] was inactive. Besides, the outcome (in [7]; in the data set with Staphylococcus aureus; in the data set with Escherichia coli; in the data set on Pseudomonas aeruginosa; in the data set with Enterococcus faecium; in the data set on Klebsiella pneumoniae) was inactive. Also, the outcome in the data set on Klebsiella aerogenes and in the data set with Acinetobacter baumannii was inactive.
Regarding `COc1cc(OC)c2c(c1)C(C1c3cc(O)cc(O)c3C(=O)c3c1cc(C)c(C(=O)OC[C@@H](O)CO)c3O)c1cc(C)cc(O)c1C2=O` (stereo not given in full), the Stability entry in data set [8] was “Unstable”.
Regarding `Cc1cc(O)c2c(=O)c3c(C(=O)O)cc(O)cc3oc2c1`, the outcome in the data set on L5178Y [1], in the data set on L5178Y [2], in the data set with L5178Y [3], with A2780S [4], with A2780S [5] and in the data set on A2780S [6] was inactive. The result (in data set [7]; in the data set with Staphylococcus aureus; in the data set on Escherichia coli; with Pseudomonas aeruginosa; in the data set with Enterococcus faecium; in the data set on Klebsiella pneumoniae) was inactive. Also, the outcome in the data set with Klebsiella aerogenes and in the data set with Acinetobacter baumannii was inactive.
Turning to `Cc1cc(O)cc(O)c1-c1cc(=O)c2c(O)cc(O)cc2o1`, the outcome with L5178Y [1], in the data set on L5178Y [2], in the data set on L5178Y [3], in the data set with A2780S [4], in the data set with A2780S [5] and in the data set with A2780S [6] was inactive. Besides, the result (in data set [7]; in the data set on Staphylococcus aureus; in the data set on Escherichia coli; in the data set on Pseudomonas aeruginosa; in the data set with Enterococcus faecium; with Klebsiella pneumoniae) was inactive. The result with Klebsiella aerogenes and in the data set with Acinetobacter baumannii was inactive.
In the case of `COc1cc(O)c2c(c1)[C@@H]([C@@H]1c3cc(O)cc(O)c3C(=O)c3c1cc(C)c(C(=O)OC[C@@H](O)CO)c3O)c1cc(C)cc(O)c1C2=O`, in data set [8], the Stability entry is “Unstable”.
Regarding `COC(=O)c1cc(C)c(C(=O)OC[C@@H](O)CO)c2oc3cc(O)cc(O)c3c(=O)c12`, the outcome (with L5178Y [1]; with L5178Y [2]; in the data set with L5178Y [3]; in data set [7]) was inactive.
On to `COc1cc(O)c2c(c1)[C@@H]([C@H]1c3cc(O)cc(O)c3C(=O)c3c1cc(C)c(C(=O)OC[C@@H](O)CO)c3O)c1cc(C)cc(O)c1C2=O`, for which, in data set [8], the Stability entry is recorded as “Unstable”.
As to `COc1cc(O)c2c(c1)C(C1c3cc(C)cc(O)c3C(=O)c3c(O)cc(OC)cc31)c1cc(C)cc(O)c1C2=O` (stereo not given), the Stability result in data set [8] is recorded as “Unstable”.
Regarding `COc1cc(OC)c2c(c1)[C@@H]([C@@H]1c3cc(C)cc(O)c3C(=O)c3c(OC)cc(O)cc31)c1cc(C)cc(O)c1C2=O`, the Stability entry in data set [8] was “Unstable”.
Take `COc1cc(OC)c2c(c1)C(C1c3cc(C)cc(O)c3C(=O)c3c(OC)cc(OC)cc31)c1cc(C)cc(O)c1C2=O` (stereo not given): the Stability entry in data set [8] is reported as “Unstable”.
On to `COC(=O)c1cc(O)cc(O)c1C(=O)c1c(O)cc(C)cc1O`, for which the outcome in the data set on L5178Y [1], in the data set with L5178Y [2], in the data set on L5178Y [3], in the data set with A2780S [4], with A2780S [5] and in the data set on A2780S [6] was inactive. The result (in data set [7]; with Staphylococcus aureus; in the data set with Escherichia coli; in the data set with Pseudomonas aeruginosa; in the data set with Enterococcus faecium; with Klebsiella pneumoniae) was inactive. The outcome in the data set with Klebsiella aerogenes and in the data set on Acinetobacter baumannii was inactive.
In the case of `COc1cc(O)cc2c1C(=O)c1c(O)cc(C)cc1C2=O`, the outcome in the data set on L5178Y [1], with L5178Y [2], in the data set with L5178Y [3], with A2780S [4], in the data set on A2780S [5] and with A2780S [6] was inactive. Besides, the outcome (in data set [7]; in the data set with Staphylococcus aureus; with Escherichia coli; with Pseudomonas aeruginosa; in the data set with Enterococcus faecium; in the data set with Klebsiella pneumoniae) was inactive. Further, the outcome with Klebsiella aerogenes and with Acinetobacter baumannii was inactive.
Consider `Cc1cc2cc(O)cc(O)c2c2oc(=O)cc(O)c12`, for which the result in the data set on L5178Y [1], in the data set on L5178Y [2], with L5178Y [3], in the data set on A2780S [4], in the data set on A2780S [5] and with A2780S [6] was inactive. The outcome (in [7]; in the data set on Staphylococcus aureus; in the data set on Escherichia coli; with Pseudomonas aeruginosa; in the data set with Enterococcus faecium; in the data set on Klebsiella pneumoniae) was inactive. Moreover, the result in the data set on Klebsiella aerogenes and with Acinetobacter baumannii was inactive.
Take `COC(=O)c1cc(OC)cc(OC)c1C(=O)c1c(O)cc(C)cc1O`: the result in the data set with L5178Y [1], with L5178Y [2], in the data set on L5178Y [3], with A2780S [4], in the data set on A2780S [5] and with A2780S [6] was inactive. For the same compound, the result (in data set [7]; with Staphylococcus aureus; in the data set with Escherichia coli; in the data set on Pseudomonas aeruginosa; with Enterococcus faecium; in the data set on Klebsiella pneumoniae) was inactive. In addition, the result in the data set with Klebsiella aerogenes and in the data set on Acinetobacter baumannii was inactive.
As to `COC(=O)c1cc(C)c(C(=O)OC[C@@H](O)CO)c(OC)c1C(=O)c1c(C)cc(O)cc1O`, the outcome (with L5178Y [1]; in the data set with L5178Y [2]; in the data set with L5178Y [3]; in [7]) was inactive.
As to `Cc1cc(=O)c2c(C)cc3cc(O)cc(O)c3c2o1`, the result in the data set on L5178Y [1], in the data set on L5178Y [2], in the data set with L5178Y [3], in the data set with A2780S [4], in the data set with A2780S [5] and with A2780S [6] was inactive. Moreover, the outcome (in [7]; with Staphylococcus aureus; in the data set with Escherichia coli; in the data set on Pseudomonas aeruginosa; in the data set on Enterococcus faecium; with Klebsiella pneumoniae) was inactive. Further, the result in the data set with Klebsiella aerogenes and in the data set on Acinetobacter baumannii was inactive.
Consider `COC(=O)c1cc(O)cc(OC)c1C(=O)c1c(O)cc(C)cc1O`, for which the result in the data set on L5178Y [1], with L5178Y [2], in the data set with L5178Y [3], in the data set on A2780S [4], in the data set on A2780S [5] and in the data set on A2780S [6] was inactive. In addition, the outcome (in data set [7]; in the data set on Staphylococcus aureus; in the data set on Escherichia coli; in the data set with Pseudomonas aeruginosa; in the data set on Enterococcus faecium; in the data set with Klebsiella pneumoniae) was inactive. For the same compound, the result with Klebsiella aerogenes and with Acinetobacter baumannii was inactive.
As for `COc1cc(OC)c2c(c1)C(=O)c1cc(C)cc(O)c1C2=O`, the result with L5178Y [1], in the data set with L5178Y [2], in the data set with L5178Y [3], in the data set on A2780S [4], in the data set with A2780S [5] and in the data set with A2780S [6] was inactive. For the same compound, the result in data set [7] was inactive.
As for `Cc1cc(O)c2c(c1)C(=O)c1cc(O)cc(O)c1C2=O`, the outcome in the data set on L5178Y [1], in the data set on L5178Y [2], in the data set with L5178Y [3], in the data set with A2780S [4], in the data set with A2780S [5] and in the data set on A2780S [6] was inactive. Besides, the outcome (in data set [7]; in the data set with Staphylococcus aureus; in the data set on Escherichia coli; in the data set with Pseudomonas aeruginosa; in the data set with Enterococcus faecium; in the data set on Klebsiella pneumoniae) was inactive. In addition, the outcome in the data set on Klebsiella aerogenes and with Acinetobacter baumannii was inactive.
